Earlier results, collected in US6420311B1, “Polyether diamine—based surfactant adjuvants and compositions thereof” (Huntsman Petrochemical Corporation, priority 1999, dated 2002).

Conditions: free acid form

In the case of `O=C(O)CNCP(=O)(O)O` [glyphosate, N-phosphonomethylglycine], the water solubility is given as “low”.
